Assay results published in US9474757B2, “Methods for treating cancer using TOR kinase inhibitor combination therapy” (Signal Pharmaceuticals, LLC, priority 2013, dated 2016).

Legend:
OCILy10 xenografts = assay: CIVO arrayed microinjection, OCILy10 xenograft, cleaved caspase 3; assay type: in vivo, Nu/Nu mice
Description: (§1) Anesthetized Nu/Nu mice harboring xenografted tumors were injected with multiple individual compounds or compound combinations, simultaneously, each into a distinct location of the tumor. Precise, controlled delivery of the compounds was evaluated for spatially defined and cellular changes around sites of tumor microinjection across xenograft models of DLBCL. Tumors were resected and injection quality was assessed by IVIS imaging of co-injected near-infrared tracking dye. Sections from representative regions down the z-axis of the tumor were prepared for staining with biomarkers of pathway inhibition and tumor response. Samples were then batch scanned in a Caliper Pannoramic slide scanner, resulting in high resolution images compatible with single cell analysis and subsequent data quantification via Presage's CIVO™ analyzer custom image analysis platform (for technology description, see R. Klinghoffer et al, AACR, 2014 and Presagebio.com).
In order to evaluate combination treatment with Compound 1, Compound A and Compound AA, mice with OCILy10 xenografts were treated systemically with Compound A 30 mpk QD×4 followed by Compound A 30 mpk and Compound 110 mpk QD×3. At 3 hours after the 7th systemic dose, Compound AA (15.4 μg in 4 μL injected) was injected locally at three sites. […]

WSU-DLCL2 xenograft = assay: DLBCL xenograft model (WSU-DLCL2); assay type: in vivo, SCID mice; settings: combination study
Description: Severe combined immunodeficiency (SCID) mice were implanted with human DLBCL cell line (WSU-DLCL2) into the flank. Treatment of compounds started between Day 11 and Day 14 after cell inoculation. Randomized groups of mice (n=9 to 10/group) were treated with the single agents (Compound 1, Compound A or Compound AA) or the combination of Compound 1/Compound A, Compound A/Compound AA, or Compound 1/Compound AA. Compounds were administered orally on a once daily (Compound 1 and Compound A) or twice daily […] schedule for 21 days. The positive control consisted of CHOP therapy (combination of cyclophosphamide, doxorubicin, vincristine and prednisone). Compound 1 and Compound A were formulated in CMC-Tween (carboxymethylcellulose/Tween 80/deionized water). Compound AA was suspended in DSP (dimethylsulphoxide/solutol/phosphate buffered saline).
Initial studies were conducted in order to determine the antitumor activity of Compound 1 and to identify a dose level for the combination studies. In the WSU-DLCL2 xenograft model, Compound 1 inhibited tumor growth in a dose-dependent fashion. […] In a subsequent combination study, Compound 1 was dosed at 10 mg/kg, once daily (QD). Compound A and Compound AA were dosed at 30 mg/kg (QD) and 50 mg/kg (BID), respectively.

[1] = system: SUDHL4 (DLBCL) xenografts; assay: CIVO arrayed microinjection, SUDHL4 xenograft, cleaved caspase 3; assay type: in vivo, Nu/Nu mice; settings: systemic Compound A 30 mpk QD×8 -/+ dexamethasone 5 mpk, local Compound 2 13 μg in 4 μL
Description: as §1
In order to evaluate combination effects of Compound A with other compounds in the DLBCL model SUDHL4, vehicle or Compound A (30 mpk QD×8)−/+ dexamethasone (5 mpk QD×8) was given systemically. […] Apoptosis was evaluated by measurement of the apoptosis marker, cleaved caspase 3 (CC3), which was plotted as a function of distance from the injection site.

OCI-Ly10 xenograft = assay: OCI-Ly10 DLBCL xenograft model; assay type: in vivo, SCID mice
Excerpt: OCI-Ly10 cells are derived from a diffuse-large B-cell lymphoma, a type of non-Hodgkins lymphoma. Female SCID mice (Fox Chase SCID®, CB 17/Icr-Prkdcscid, Charles River), characterized by severe combined T and B cell immunodeficiency, were 10 weeks old, with body weights ranging from 15.4 to 24.2 g, on Day 1 of this study. In brief, female CB.17 SCID mice were inoculated with 5×10^6 OCI-Ly10 cells subcutaneously, and tumors were allowed to grow to approximately 100-150 mm^3 before stratification into treatment groups, so as to yield groups with comparably sized tumors prior to treatment. In addition to the efficacy treatment groups, some mice were stratified into short-term treatment groups and their tumors were collected 4 hours post final dosing in groups that received saline, 30 mg/kg or 10 mg/kg Compound A, or 3 mg/kg Compound 1 once daily for seven days, starting on day 27. Frozen, and fixed paraffin-embedded, samples were analyzed. In the efficacy arm of the study, dosing began on Day 1 (D1) in 12 groups of mice (n=10/group) with established subcutaneous tumors (mean volumes, 120-129 mm^3). Compound A (at two dose levels) and Compound 1 (at one dose level) were each administered once daily for 28 days (qd×28). Control mice received the vehicle, 5% DMSO/15% Solutol® HS15/80% PBS, p.o. b.i.d.×28. On D29 a 21-day dosing extension, from day 33 to day 53, in the control and five test groups was implemented, resulting in b.i.d.×28/4/21 or qd×28/4/21 schedules for these groups.
Tumors were calipered twice weekly, and each mouse in the efficacy study was euthanized when its tumor reached the 1000 mm^3 volume endpoint, or on day 61, whichever came first. Efficacy was determined from tumor growth delay (TGD), defined as the increase in the median time-to-endpoint (TTE) in drug-treated (T) versus vehicle-treated (C) mice, and from the significance of survival extension.

[2] = 28-day schedule: Compound A 30 mg/kg qd×28, alone or with Compound 1
[3] = extended schedule qd×28/4/21: Compound A 10 mg/kg, Compound 1 3 mg/kg, alone or combined

## Cc1nc2cccc(N)c2c(=O)n1C1CCC(=O)NC1=O (centres unmarked) [Compound A, 3-(5-Amino-2-methyl-4-oxoquinazolin-3(4H)-yl)-piperidine-2,6-dione]
OCILy10 xenografts; systemic Compound A 30 mpk, with or without Compound 1 10 mpk, local Compound AA
  cell death (CC3 positive sites) at Compound AA injection sites: did not lead to cell death
OCILy10 xenografts; systemic dose, local injection of Compound AA 15.4 μg in 4 μL, total sites 18 and 26
  CC3 positive sites: 0
WSU-DLCL2 xenograft; Day 34, Compound 1 10 mg/kg QD, Compound A 30 mg/kg QD, Compound AA 50 mg/kg BID, oral
  decrease in tumor volume (TVR) vs vehicle: 30%
WSU-DLCL2 xenograft; single agents or in combination
  body weight loss: No significant body weight loss
[1]
  apoptosis (cleaved caspase 3) induced by local treatment with Compound 2: enhanced induction of apoptosis
[1]; listed as compound A
  apoptosis (cleaved caspase 3) induced by local treatment with Compound 2: enhanced cell death
OCI-Ly10 xenograft; 28-day schedule: Compound A 30 mg/kg qd×28
  tumor growth delay (TGD), %: 88%
OCI-Ly10 xenograft; [2]
  PRs: two
  survivors (n=10/group): seven
  tumor growth delay (TGD): 28.6 days
OCI-Ly10 xenograft; extended schedule qd×28/4/21: Compound A 10 mg/kg, Compound 1 3 mg/kg
  tumor growth delay (TGD), %: 27%
OCI-Ly10 xenograft; [3]
  PRs / regressions: no regressions
  survivors (n=10/group): three
  tumor growth delay (TGD): 8.9 days
